In US11618747B2, “LXR modulators with bicyclic core moiety” (OrsoBio, Inc., priority 2018, dated 2023) one finds EC50 data, which are given here for 19 compounds.

What is called EC50 is the concentration at which the effect is half-maximal.

Experiment [1] addresses T1, full length (FL) LXRβ (Homo sapiens, UniProt P55055, DUP175-175).
T1 construct: the full length (FL) proteins of LXRα (amino acids 1-447); NP005684; NP009052; expressed in transfected cells; host or cells: HEK293
T1 sequence (P55055 with tags, fused parts or gaps DUP175-175): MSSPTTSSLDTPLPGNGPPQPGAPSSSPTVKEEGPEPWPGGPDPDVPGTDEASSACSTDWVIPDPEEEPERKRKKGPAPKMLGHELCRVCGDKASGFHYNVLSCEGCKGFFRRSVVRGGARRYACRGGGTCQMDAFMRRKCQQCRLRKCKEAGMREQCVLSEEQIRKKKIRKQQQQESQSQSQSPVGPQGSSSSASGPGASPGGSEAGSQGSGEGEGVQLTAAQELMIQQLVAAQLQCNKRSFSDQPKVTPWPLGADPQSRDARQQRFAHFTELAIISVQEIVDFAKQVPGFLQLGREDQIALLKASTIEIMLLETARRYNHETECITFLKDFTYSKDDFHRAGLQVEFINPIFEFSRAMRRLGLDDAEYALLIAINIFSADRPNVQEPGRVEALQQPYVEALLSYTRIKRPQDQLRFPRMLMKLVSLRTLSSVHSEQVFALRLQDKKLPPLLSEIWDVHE
Description: LXR Gal4 reporter transient transfection assay (FL-M2H Gal4β). The format is cell-based. To be noted: HEK293 cells, full length LXRβ; read-out: FL-M2H Gal4β (EC50 range). As to the method: (§1) The tested compounds were usually dissolved, tested and stored as 20 mM stock solutions in DMSO. Since sulfonyl acetic acid derivatives tend to decarboxylate under these conditions, these stock solutions were prepared, tested and stored as 20 mM DMSO stock solutions containing 100 mM trifluoroacetic Acid (5 equivalents). Sulfonyl acetic acid derivatives are shelf stable as solid at rt for long time as reported by Griesbrecht et al. (Synlett 2010:374) or Faucher et al. (J. Med. Chem. 2004; 47:18).
LXR Gal4 Reporter Transient Transfection Assays
LXRα and LXRβ activity status was determined via detection of interaction with coactivator and corepressor proteins in mammalian two-hybrid experiments (M2H). For this, via transient transfection the full length (FL) proteins of LXRα (amino acids 1-447; NP005684; SEQ ID NO:1) or LXRβ-(amino acids 1-461; NP009052; SEQ ID NO:2) or the ligand-binding domains (LBD) of LXRα (amino acids 155-447 SEQ ID NO:3) or LXRβ (amino acids 156-461; SEQ ID NO:4) were expressed from pCMV-AD (Stratagene) as fusions to the transcriptional activation domain of NFkB. As cofactors, domains of either the steroid receptor coactivator 1 (SRC1; amino acids 552-887; SEQ ID NO:5) or of the corepressor NCoR (amino acids 1906-2312; NP006302; SEQ ID NO:6) were expressed as fusions to the DNA binding domain of the yeast transcription factor GAL4 (from pCMV-BD; Stratagene). Interaction was monitored via activation of a coexpressed Firefly Luciferase Reporter gene under control of a promoter containing repetitive GAL4 response elements (vector pFRLuc; Stratagene). Transfection efficiency was controlled via cotransfection of constitutively active pRL-CMV Renila reniformis luciferase reporter (Promega). HEK293 cells were grown in minimum essential medium (MEM) with 2 mM L-glutamine and Earle's balanced salt solution supplemented with 8.3% fetal bovine serum, 0.1 mM non-essential amino acids, 1 mM sodium pyruvate, at 37° C. in 5% CO2. 3.5×10^4 cells/well were plated in 96-well cell culture plates in growth medium supplemented with 8.3% fetal bovine serum for 16-20 h to ˜90% confluency. For transfection, medium was taken off and LXR and cofactor expressing plasmids as well as the reporter plasmids are added in 30 μL OPTIMEM/well including polyethylene-imine (PEI) as vehicle. Typical amounts of plasmids transfected/well: pCMV-AD-LXR (5 ng), pCMV-BD-cofactor (5 ng), pFR-Luc (100 ng), pRL-CMV (0.5 ng). Compound stocks were prepared in DMSO, prediluted in MEM to a total volume of 120 μL, and added 4 h after addition of the transfection mixture (final vehicle concentration not exceeding 0.2%). Cells were incubated for additional 16 h, lysed for 10 min in 1× Passive Lysis Buffer (Promega) and Firefly and Renilla luciferase activities were measured sequentially in the same cell extract using buffers containing D-luciferine and coelenterazine, respectively. Measurements of luminescence were done in a BMG-luminometer.

For experiment [2], the target named is T2, LXRβ ligand-binding domain (Homo sapiens, UniProt P55055, DUP175-175).
T2 construct: amino acids 156-461; NP009052; made in house; host or cells: E. coli
T2 sequence (P55055 with tags, fused parts or gaps DUP175-175 limits assumed): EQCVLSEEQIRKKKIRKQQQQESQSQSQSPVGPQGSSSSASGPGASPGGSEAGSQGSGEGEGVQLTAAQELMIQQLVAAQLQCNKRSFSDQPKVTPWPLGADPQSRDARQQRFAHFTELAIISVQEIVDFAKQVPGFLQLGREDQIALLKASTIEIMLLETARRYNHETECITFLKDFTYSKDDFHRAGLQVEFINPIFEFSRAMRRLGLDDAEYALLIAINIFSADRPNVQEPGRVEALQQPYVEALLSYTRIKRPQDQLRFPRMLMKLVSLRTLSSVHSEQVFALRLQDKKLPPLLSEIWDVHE
Description: TR-FRETβ activity assay (NCoA3 coactivator peptide recruitment). Format: biochemical. To be noted: TR-FRET, 1 μM 24(S)-25-epoxycholesterol prestimulation; read-out: FRETβ (EC50 range). The procedure:
as §1
Recombinant GST-LXRPβ ligand-binding domain (LBD; amino acids 156-461; NP009052; SEQ ID NO:4) was expressed in E. coli and purified via gluthatione-sepharose affinity chromatography. N-terminally biotinylated NCoA3 coactivator peptide (SEQ ID NO:7) was chemically synthesized (Eurogentec). Assays were done in 384 well format (final assay volume of 25 μL/well) in a Tris/HCl buffer (pH 6.8) containing KCl, bovine serum albumin, Triton-X-100 and 1 μM 24(S)-25-epoxycholesterol as LXR-prestimulating agonist. Assay buffer was provided and test articles (potential LXR inverse agonists) were titrated to yield final assay concentrations of 50 μM, 16.7 μM, 5.6 μM, 1.9 μM, 0.6 μM, 0.2 μM, 0.07 μM, 0.02 μM, 0.007 μM, 0.002 μM with one vehicle control. Finally, a detection mix was added containing anti GST-Tb cryptate (CisBio; 610SAXLB) and Streptavidin-XL665 (CisBio; 610SAXLB) as fluorescent donor and acceptor, respectively, as well as the coactivator peptide and LXRβ-LBD protein (SEQ ID NO:4). The reaction was mixed thoroughly, equilibrated for 1 h at 4° C. and vicinity of LXRβ and coactivator peptide was detected by measurement of fluorescence in a VictorX4 multiplate reader (PerkinElmer Life Science) using 340 nm as excitation and 615 and 665 nm as emission wavelengths. Assays were performed in triplicates.
Final Assay Concentrations of Components:
240 mM KCl, 1 μg/μL BSA, 0.002% Triton-X-100, […] anti GST-Tb cryptate, 2.5 ng/μL Streptavidin-XL665, coactivator peptide (400 nM), LXRβ protein (530 μg/mL, i.e. 76 nM).
For orientation: TR-FRET usually uses a lanthanide donor and a delayed reading to cut background.

The structures appear in SMILES notation.

In the case of `Cc1ccc(S(=O)(=O)n2c(-c3cccc(N4CC(C(=O)O)C4)c3)c(-c3ccsc3/C=N/O)c3cc(F)ccc32)cc1` [3/7], the EC50 in experiment [1] is less than 100 nM; in experiment [2], 1000 to 10000 nM. `Cc1ccc(S(=O)(=O)n2c(-c3cccc(S(=O)(=O)CC(=O)O)c3)c(-c3ccsc3C#N)c3ccccc32)cc1` [3/15]: the EC50 in experiment [2] lay within 1000 to 10000 nM. In the case of `Cc1ccc(S(=O)(=O)n2c(-c3cccc(N4CC(C(=O)O)C4)c3)c(-c3ccsc3C(=O)N(C)C)c3cc(F)ccc32)cc1` [3/28], the EC50 is 1000 to 10000 nM in experiment [1] and more than 10000 nM in experiment [2]. The matching figures for `Cc1ccc(S(=O)(=O)n2c(-c3cccc(-c4ccc(C(N)=O)cc4)c3)c(-c3ccsc3C#N)c3cc(F)ccc32)cc1` [6/2]: less than 100 nM and 100 to 1000 nM.

For `Cc1cccc(C#N)c1-c1c(-c2cccc(-c3ccc(C(=O)O)cc3Cl)c2)n(S(=O)(=O)c2ccc(C(F)F)cc2)c2ccc(F)cc12` [11/36, 2-chloro-3′-(3-(2-cyano-6-methylphenyl)-1-((4-(difluoro-methyl)phenyl)sulfonyl)-5-fluoro-1H-indol-2-yl)-[1,1′-biphenyl]-4-carboxylic Acid], the EC50 in experiment [1] and in experiment [2] was less than 100 nM each time.

With `N#Cc1cccc(C#N)c1-c1c(-c2cccc(-c3ccc(C(=O)O)cc3)c2)n(S(=O)(=O)c2ccc(C(F)F)cc2)c2ccc(F)cc12` [11/50], the EC50 in experiment [1] and in experiment [2] was less than 100 nM in each case. For `N#Cc1sccc1-c1c(-c2cccs2)n(S(=O)(=O)c2ccc(Cl)cc2)c2cc(OCC(=O)O)ccc12` [15/3], the EC50 in experiment [2] was more than 10000 nM. On the same count and under the same terms, the value for `N#Cc1sccc1-c1c(-c2ccccc2)n(S(=O)(=O)c2ccc(CC(=O)O)cc2)c2ccccc12` [27/1] was 1000 to 10000 nM; that for `N#Cc1sccc1-c1c(-c2ccccc2)n(S(=O)(=O)c2ccc(-c3cccc(C(=O)O)c3)cc2)c2ccccc12` [27/2] was 1000 to 10000 nM; that for `N#Cc1sccc1-c1c(-c2ccccc2)n(S(=O)(=O)c2ccc(CC(=O)O)s2)c2ccccc12` [27/3] was more than 10000 nM. Still for that read-out and setting: the value for `Cn1cnc(S(=O)(=O)n2c(-c3cccc(C4CC4C(=O)O)c3)c(-c3ccsc3C#N)c3ccccc32)c1` (stereo not shown) [30/10] was more than 10000 nM. With `Cc1ccc(S(=O)(=O)n2c(-c3cccc(-c4ccc(CN(C)C)cc4Cl)c3)c(-c3ccsc3C#N)c3cc(F)ccc32)cc1` [Example 2, 3-(2-(2′-Chloro-4′-((dimethylamino)methyl)-[1,1′-biphenyl]-3-yl)-5-fluoro-1-tosyl-1H-indol-3-yl)thiophene-2-carbonitrile], the EC50 in experiment [1] was less than 100 nM; in experiment [2], 100 to 1000 nM.

For the compound `Cc1ccc(S(=O)(=O)n2c(-c3cccc(-c4cncc(S(=O)(=O)CC(=O)O)c4)c3)c(-c3ccsc3C#N)c3ccccc32)cc1` [Example 5, 2-((5-(3-(3-(2-Cyanothiophen-3-yl)-1-tosyl-1H-indol-2-yl)phenyl)pyridin-3-yl)sulfonyl)acetic Acid], the EC50 in experiment [1] is 1000 to 10000 nM; in experiment [2], 100 to 1000 nM. For `Cc1ccc(S(=O)(=O)n2c(-c3cccc(-c4ccc(C(=O)NO)cc4)c3)c(-c3ccsc3C#N)c3cc(F)ccc32)cc1` [Example 6, 3′-(3-(2-Cyanothiophen-3-yl)-5-fluoro-1-tosyl-1H-indol-2-yl)-N-hydroxy-[1,1′-biphenyl]-4-carboxamide] the same measures were less than 100 nM and 100 to 1000 nM. The matching figures for `Cc1ccc(S(=O)(=O)n2c(-c3cccc(-c4ccc(C(=O)NCCS(=O)(=O)O)cc4Cl)c3)c(-c3ccsc3C#N)c3cc(F)ccc32)cc1` [Example 10, 2-(2-Chloro-3′-(3-(2-cyanothiophen-3-yl)-5-fluoro-1-tosyl-1H-indol-2-yl)-[1,1′-biphenyl]-4-carboxamido)ethane-1-sulfonic Acid]: 100 to 1000 nM and 100 to 1000 nM.

Turning to `Cc1ccc(S(=O)(=O)n2c(-c3cccc(-c4ccc(C(=O)O)cc4Cl)c3)c(-c3ccccc3C#N)c3cc(F)ccc32)cc1` [Example 11, 2-Chloro-3′-(3-(2-cyanophenyl)-5-fluoro-1-tosyl-1H-indol-2-yl)-[1,1′-biphenyl]-4-carboxylic acid], the EC50 in experiment [1] and in experiment [2] was less than 100 nM in each case. Turning to `Cc1ccc(S(=O)(=O)n2c(-c3cccc(-c4cc(C)c(C(=O)O)cc4Cl)c3)c(-c3ccsc3C#N)c3cc(F)ccc32)cc1` [Example 12, 2-Chloro-3′-(3-(2-cyanothiophen-3-yl)-5-fluoro-1-tosyl-1H-indol-2-yl)-5-methyl-[1,1′-biphenyl]-4-carboxylic acid], the half-maximal effective concentration (EC50) in experiment [1] is less than 100 nM; in experiment [2], 100 to 1000 nM.

With `N#Cc1sccc1-c1c(-c2cccs2)n(S(=O)(=O)c2ccc(Cl)cc2)c2cc(C(=O)O)ccc12` [Example 19, 1-((4-Chlorophenyl)sulfonyl)-3-(2-cyanothiophen-3-yl)-2-(thiophen-2-yl)-1H-indole-6-carboxylic Acid], in experiment [2], the EC50 was more than 10000 nM. On to `Cc1ccc(S(=O)(=O)n2c(-c3cccc(-c4cnc(C(=O)O)cc4C)c3)c(-c3ccsc3C#N)c3cc(F)ccc32)cc1` [Example 36, 5-(3-(3-(2-Cyanothiophen-3-yl)-5-fluoro-1-tosyl-1/indol-2-yl)phenyl)-4-methylpicolinic Acid], for which the EC50 in experiment [1] was in the range of 100 to 1000 nM; in experiment [2], 1000 to 10000 nM.
